According to PubChem BioAssay (NCI):
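The compound was tested at five concentrations on cells cultured in 96-well plates, with a 48-hour exposure period. GI50: concentration for 50% inhibition of growth. TGI: concentration producing complete growth inhibition.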

How the values were obtained:
Assay in all cases: NCI-60 cell line screen, 48 h
[1] = system: A549 NSCLC
[2] = system: 786-0 renal
[3] = system: PC-3 prostate
[4] = system: NCI-H460 lung
[5] = system: U251 CNS
[6] = system: SF-539 CNS
[7] = system: NCI-H226 lung
[8] = system: M14 melanoma
[9] = system: COLO 205 colon
[10] = system: SF-268 CNS
[11] = system: HCT-116 colon
[12] = system: HOP-62 NSCLC
[13] = system: IGROV1 ovarian
[14] = system: LOX IMVI melanoma
[15] = system: MALME-3M melanoma
[16] = system: MCF7 breast
[17] = system: UACC-257 melanoma
[18] = system: HT29 colon
[19] = system: ACHN renal
[20] = system: SNB-19 CNS
[21] = system: SR leukemia
[22] = system: CAKI-1 renal
[23] = system: K-562 leukemia
[24] = system: RPMI-8226 leukemia
[25] = system: SW-620 colon
[26] = system: BT-549 breast
[27] = system: HCT-15 colon
[28] = system: SK-OV-3 ovarian
[29] = system: UO-31 renal
[30] = system: SF-295 CNS
[31] = system: SK-MEL-5 melanoma
[32] = system: A498 renal
[33] = system: OVCAR-3 ovarian
[34] = system: DU-145 prostate
[35] = system: MDA-MB-231 breast
[36] = system: OVCAR-4 ovarian
[37] = system: T-47D breast
[38] = system: KM12 colon
[39] = system: TK-10 renal
[40] = system: MDA-MB-435
[41] = system: UACC-62 melanoma
[42] = system: HCC-2998 colon
[43] = system: OVCAR-8 ovarian
[44] = system: NCI/ADR-RES ovarian
[45] = system: OVCAR-5 ovarian
[46] = system: NCI-H23 lung
[47] = system: EKVX NSCLC
[48] = system: SK-MEL-2 melanoma
[49] = system: SK-MEL-28 melanoma
[50] = system: HS 578T breast
[51] = system: SN12C renal
[52] = system: HL-60(TB) leukemia
[53] = system: SNB-75 CNS
[54] = system: MOLT-4 leukemia
[55] = system: NCI-H522 lung
[56] = system: RXF 393 renal
[57] = system: HOP-92 NSCLC
[58] = system: CCRF-CEM leukemia

Q: Which TGI [1] does the source give for CC/C(=C/OC)P1(=O)OC(C)(C)CN1C(C)(C)C (configuration not stated) here?
A: The TGI was over 100 µM.

Q: And the TGI [2]?
A: The TGI was over 100 µM.

Q: And the TGI [3]?
A: The TGI was over 100 µM.

Q: And the TGI [4]?
A: Its TGI is over 100 µM.

Q: And the TGI [5]?
A: Its TGI is over 100 µM.

Q: What about the TGI [6] of the same compound?
A: Its TGI is over 100 µM.

Q: What about the TGI [7] of the same compound?
A: The TGI was over 100 µM.

Q: And the TGI [8]?
A: Its TGI is over 100 µM.

Q: What about the TGI [9] of the same compound?
A: Its TGI is over 100 µM.

Q: What about the TGI [10] of the same compound?
A: The TGI was over 100 µM.

Q: And the TGI [11]?
A: Its TGI is over 100 µM.

Q: What about the TGI [12] of the same compound?
A: The TGI was over 100 µM.

Q: And the TGI [13]?
A: The TGI was over 100 µM.

Q: And the TGI [14]?
A: Its TGI is over 100 µM.

Q: And the TGI [15]?
A: Its TGI is over 100 µM.

Q: What about the TGI [16] of the same compound?
A: The TGI was over 100 µM.

Q: And the TGI [17]?
A: Its TGI is over 100 µM.

Q: And the TGI [18]?
A: Its TGI is over 100 µM.

Q: And the TGI [19]?
A: The TGI was over 100 µM.

Q: What about the TGI [20] of the same compound?
A: The TGI was over 100 µM.

Q: And the TGI [21]?
A: The TGI was over 100 µM.

Q: And the TGI [22]?
A: The TGI was over 100 µM.

Q: What about the TGI [23] of the same compound?
A: The TGI was over 100 µM.

Q: What about the TGI [24] of the same compound?
A: The TGI was over 100 µM.

Q: What about the TGI [25] of the same compound?
A: The TGI was over 100 µM.

Q: And the TGI [26]?
A: The TGI was over 100 µM.

Q: What about the TGI [27] of the same compound?
A: The TGI was over 100 µM.

Q: What about the TGI [28] of the same compound?
A: The TGI was over 100 µM.

Q: And the TGI [29]?
A: The TGI was over 100 µM.

Q: What about the TGI [30] of the same compound?
A: Its TGI is over 100 µM.

Q: And the TGI [31]?
A: The TGI was over 100 µM.

Q: And the TGI [32]?
A: The TGI was over 100 µM.

Q: What about the TGI [33] of the same compound?
A: Its TGI is over 100 µM.

Q: And the TGI [34]?
A: The TGI was over 100 µM.

Q: What about the TGI [35] of the same compound?
A: Its TGI is over 100 µM.

Q: What about the TGI [36] of the same compound?
A: Its TGI is over 100 µM.

Q: What about the TGI [37] of the same compound?
A: The TGI was over 100 µM.

Q: What about the TGI [38] of the same compound?
A: Its TGI is over 100 µM.

Q: And the TGI [39]?
A: Its TGI is over 100 µM.

Q: What about the TGI [40] of the same compound?
A: Its TGI is over 100 µM.

Q: And the TGI [41]?
A: Its TGI is over 100 µM.

Q: And the TGI [42]?
A: Its TGI is over 100 µM.

Q: And the TGI [43]?
A: Its TGI is over 100 µM.

Q: What about the TGI [44] of the same compound?
A: The TGI was over 100 µM.

Q: And the TGI [45]?
A: The TGI was over 100 µM.

Q: And the TGI [46]?
A: The TGI was over 100 µM.

Q: What about the TGI [47] of the same compound?
A: The TGI was over 100 µM.

Q: And the TGI [48]?
A: The TGI was over 100 µM.

Q: Which results are given for O=C1c2ccccc2-c2ccc(O)cc21?
A: TGI [49]: 45.8 µM; TGI [1]: 88 µM; TGI [2]: > 100 µM; TGI [3]: 42.9 µM; TGI [4]: 76.3 µM; TGI [5]: 70.3 µM; TGI [6]: 52.8 µM; TGI [7]: > 100 µM; TGI [50]: > 100 µM; TGI [51]: 36.9 µM; TGI [8]: 72.7 µM; TGI [9]: 58.4 µM; TGI [10]: 47.2 µM; TGI [11]: > 100 µM; TGI [12]: > 100 µM; TGI [13]: 35.9 µM; TGI [14]: 97.5 µM; TGI [15]: 49.2 µM; TGI [16]: 67.2 µM; TGI [52]: 75.4 µM; TGI [17]: 49.1 µM; TGI [18]: > 100 µM; TGI [53]: > 100 µM; TGI [19]: 33.2 µM; TGI [20]: 48.7 µM; TGI [21]: 29.7 µM; TGI [22]: 37.8 µM; TGI [54]: 44.4 µM; TGI [23]: 94.7 µM; TGI [24]: > 100 µM; TGI [25]: > 100 µM; TGI [55]: 32.9 µM; TGI [27]: 49.6 µM; TGI [29]: 32.1 µM; TGI [30]: 96.2 µM; TGI [31]: 45.4 µM; TGI [32]: 41.8 µM; TGI [34]: 49.1 µM; TGI [35]: 44.2 µM; TGI [36]: 44.2 µM; TGI [37]: 44.8 µM; TGI [38]: 38.4 µM; TGI [39]: 49.5 µM; TGI [40]: 59.6 µM; TGI [41]: 30.9 µM; TGI [43]: 42.2 µM; TGI [44]: 84.5 µM; TGI [45]: 68.5 µM; TGI [46]: 38.5 µM; TGI [47]: 37.8 µM; TGI [48]: 46.5 µM; TGI [56]: 32.9 µM

Q: Which results are given for C/C(=C\c1ccn(-c2ccc(N)cc2C(F)(F)F)n1)[C@@H]1C[C@@H]2O[C@]2(C)CCC[C@H](C)[C@H](O)[C@@H](C)C(=O)C(C)(C)[C@@H](O)CC(=O)O1?
A: GI50 [49]: 1.06 µM; TGI [49]: > 11.1 µM; GI50 [1]: 0.508 µM; TGI [1]: > 11.1 µM; GI50 [2]: 0.569 µM; TGI [2]: > 11.1 µM; GI50 [3]: 0.406 µM; TGI [3]: > 11.1 µM; GI50 [4]: 0.302 µM; TGI [4]: > 11.1 µM; GI50 [5]: 0.386 µM; TGI [5]: > 11.1 µM; GI50 [57]: 1.27 µM; TGI [57]: > 11.1 µM; GI50 [6]: 0.305 µM; TGI [6]: 1.86 µM; GI50 [7]: 6.35 µM; TGI [7]: > 11.1 µM; GI50 [50]: 0.399 µM; TGI [50]: 4.3 µM; GI50 [51]: 1.57 µM; TGI [51]: > 11.1 µM; GI50 [8]: 0.242 µM; TGI [8]: 1.56 µM; GI50 [9]: 0.25 µM; TGI [9]: 0.773 µM; GI50 [10]: 0.481 µM; TGI [10]: > 11.1 µM; GI50 [11]: 0.201 µM; TGI [11]: > 11.1 µM; GI50 [12]: 0.49 µM; TGI [12]: 9.98 µM; GI50 [13]: 0.778 µM; TGI [13]: > 11.1 µM; GI50 [58]: 0.413 µM; TGI [58]: > 11.1 µM; GI50 [14]: 0.476 µM; TGI [14]: > 11.1 µM; GI50 [15]: 0.736 µM; TGI [15]: > 11.1 µM; GI50 [16]: 0.0859 µM; TGI [16]: > 11.1 µM; GI50 [52]: 0.296 µM; TGI [52]: 1.07 µM; GI50 [17]: 1.03 µM; TGI [17]: > 11.1 µM; GI50 [18]: 0.117 µM; TGI [18]: 0.996 µM; GI50 [19]: 0.512 µM; TGI [19]: > 11.1 µM; GI50 [20]: 0.553 µM; TGI [20]: > 11.1 µM; GI50 [22]: 7.81 µM; TGI [22]: > 11.1 µM; GI50 [54]: 0.533 µM; TGI [54]: > 11.1 µM; GI50 [23]: 0.356 µM; TGI [23]: > 11.1 µM; GI50 [24]: 0.374 µM; TGI [24]: > 11.1 µM; GI50 [25]: 0.301 µM; TGI [25]: > 11.1 µM; GI50 [55]: 0.178 µM; TGI [55]: 0.428 µM; GI50 [26]: 0.553 µM; TGI [26]: > 11.1 µM; GI50 [27]: 0.429 µM; TGI [27]: > 11.1 µM; GI50 [28]: 0.42 µM; TGI [28]: > 11.1 µM; GI50 [29]: 0.954 µM; TGI [29]: > 11.1 µM; GI50 [30]: 0.314 µM; TGI [30]: 2.19 µM; GI50 [31]: 0.356 µM; TGI [31]: > 11.1 µM; GI50 [32]: 0.303 µM; TGI [32]: 2.27 µM; GI50 [33]: 0.344 µM; TGI [33]: 2.66 µM; GI50 [34]: 0.401 µM; TGI [34]: 2.87 µM; GI50 [35]: 1.51 µM; TGI [35]: > 11.1 µM; GI50 [36]: > 11.1 µM; TGI [36]: > 11.1 µM; GI50 [37]: 0.658 µM; TGI [37]: > 11.1 µM; GI50 [38]: 0.254 µM; TGI [38]: > 11.1 µM; GI50 [39]: 0.612 µM; TGI [39]: > 11.1 µM; GI50 [40]: 0.0599 µM; TGI [40]: 0.286 µM; GI50 [41]: 0.488 µM; TGI [41]: > 11.1 µM; GI50 [42]: 0.306 µM; TGI [42]: 6.23 µM; GI50 [43]: 0.506 µM; TGI [43]: > 11.1 µM; GI50 [44]: 4.38 µM; TGI [44]: > 11.1 µM; GI50 [45]: 0.519 µM; TGI [45]: > 11.1 µM; GI50 [46]: 0.548 µM; TGI [46]: > 11.1 µM; GI50 [47]: 0.747 µM; TGI [47]: > 11.1 µM; GI50 [48]: 0.303 µM; TGI [48]: 0.902 µM; GI50 [56]: 0.395 µM; TGI [56]: 4.21 µM
